Laboratory results: PMC7032066 (Insect biochemistry and molecular biology, 2019)
Starred links: 1 amine or outer side, 2 acyl side, 3 side chain; linkers in the order of their positions; H or OH if unused. Non-standard residues stand in square brackets, D forms with d. Residues, ends and D or L forms follow the SMILES beside them. Mur = C[C@@H](O[C@H]1[C@H](O)[C@@H](CO)OC(O)[C@@H]1N[*:1])C(=O)[*:2]; d(isoGln) = NC(=O)[C@@H](CCC(=O)[*:2])N[*:1]

Target: T1, M. sexta PGRP1 (Manduca sexta, UniProt Q86RS6)
T1 sequence (Q86RS6 20-191): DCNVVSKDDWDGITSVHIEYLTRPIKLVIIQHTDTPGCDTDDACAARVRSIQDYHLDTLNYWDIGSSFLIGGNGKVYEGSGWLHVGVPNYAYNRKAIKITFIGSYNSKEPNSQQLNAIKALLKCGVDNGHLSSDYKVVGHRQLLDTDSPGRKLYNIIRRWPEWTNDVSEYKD
Assay: SPR
Assay type: binding
Conditions: HBS-EP pH 7.4 (10 mM HEPES, 150 mM NaCl, 3 mM EDTA, 0.005% polysorbate 20), 25°C

CC(=O)N[C@H]1C(O)O[C@H](CO)[C@@H](O)[C@@H]1O[C@H](C)C(=O)N[C@@H](C)C(=O)N[C@H](CCC(=O)N[C@@H](CCCCN)C(=O)N[C@H](C)C(=O)N[C@H](C)C(N)=O)C(N)=O (stereo partly shown) [Lys-MPP] (Ac-[Mur]A[d(isoGln)]K[dA][dA]-NH2)
Kd: 45.6 µM
